Assay: xn = mol fraction of the nth substance listed
Conditions: 100 kPa

O=C1CCCCC1 + CCCC[n+]1ccn(C)c1C.F[B-](F)(F)F
x2 = 0
Conditions	speed of sound [m/s]
298.15 K	1414.5
308.15 K	1375.1

CCCC[n+]1ccn(C)c1C.F[B-](F)(F)F + O=C1CCCCC1
speed of sound [m/s]
Conditions	293.15 K	298.15 K	303.15 K	308.15 K
x1 = 0.0834	1450.2	1433.6	1413.1	1392
x1 = 0.1328	1459.4	1442.1	1421.5	–
x1 = 0.1764	1467.2	1448.8	1427.9	1406.3
x1 = 0.2258	1472.4	–	1433.4	1412.3
x1 = 0.2675	1476.1	1458.1	1437.7	1417.1
x1 = 0.3094	1479.6	–	1441.5	1420.8
x1 = 0.3824	1486	1468.5	–	1428.9
x1 = 0.4368	–	–	1454.6	1434.8
x1 = 0.4755	1496	1478.6	–	1440.1
x1 = 0.5276	1503.2	1486.2	1467.5	1448.5
x1 = 0.5649	1509.3	1492.5	1474.1	1455.6
x1 = 0.6063	1517	1500.4	1482.5	1464.2
x1 = 0.6451	1525.2	1508.9	–	1473.4
x1 = 0.6947	–	1521.1	1504.3	1487.3
x1 = 0.7419	1550.5	1534.8	1518.7	–
x1 = 0.7994	–	1553.9	–	–
x1 = 0.8527	1589.2	1574.3	1559.8	1544.8
x1 = 0.9134	1615.7	–	1587.9	–
x1 = 1	1659.7	1645.7	1632.5	–
